The source of these data is ChEMBL document CHEMBL4043149, “Beneficial effects of a medicinal herb, Cirsium japonicum var. maackii, extract and its major component, cirsimaritin on breast cancer metastasis in MDA-MB-231 breast cancer cells” (Bioorg Med Chem Lett, 2017).

The source made the active and inactive calls. No cut-off for these calls is given here.

In data set [1] the test system is HUVEC. The experiment in a line: Cytotoxicity against HUVEC assessed as reduction in cell viability after 24 hrs by MTT assay. In kind it is cell-based. The conditions noted are these: human.
Data set [2] relates to HUVEC. The experiment in a line: Antiangiogenic activity in HUVEC assessed as inhibition of vascular endothelial tube formation at 3.125 uM after 24 hrs by matrigel assay relative to control. Format: functional. The conditions noted are these: Homo sapiens.
For data set [3], the system named is HUVEC. Kind of data set: Antiangiogenic activity in HUVEC assessed as inhibition of vascular endothelial tube formation at 6.25 uM after 24 hrs by matrigel assay relative to control. The settings on record: Homo sapiens. Format: functional.
Data set [4] in a line: Cytotoxicity against HUVEC assessed as cell viability at 3.12 uM after 24 hrs by MTT assay. In kind it is cell-based. The settings on record: human, HUVEC cells; read-out: Activity.
For data set [5], the system named is HUVEC. The experiment in a line: Cytotoxicity against HUVEC assessed as reduction in cell viability at 100 uM after 24 hrs by MTT assay. Format: cell-based. The conditions noted are these: human.
Data set [6] concerns HUVEC. The experiment in a line: Cytotoxicity against HUVEC assessed as reduction in cell viability up to 6.25 uM after 24 hrs by MTT assay. Format: cell-based. The settings on record: human.
Data set [7] deals with HUVEC. The experiment in a line: Cytotoxicity against HUVEC assessed as reduction in cell viability at 12.50 to 100 uM after 24 hrs by MTT assay. In kind it is cell-based. The settings on record: human.
Data set [8] is described as follows: Cytotoxicity against HUVEC assessed as cell viability at 100 uM after 24 hrs by MTT assay. In kind it is cell-based. The settings on record: human, HUVEC cells; read-out: Activity.
For data set [9], the system named is MDA-MB-231. The experiment in a line: Antimetastatic activity against human MDA-MB-231 cells assessed as cell viability at 3.125 uM after 24 hrs by MTT assay relative to control. Format: functional. The settings on record: MDA-MB-231, 24 h, read-out: Activity.
Data set [10] has as its system MDA-MB-231. The experiment in a line: Antimetastatic activity against human MDA-MB-231 cells assessed as reduction in cell viability at 6.25 uM after 24 hrs by MTT assay relative to control. Format: functional.
The test system of data set [11] is MDA-MB-231. The experiment in a line: Antimetastatic activity against human MDA-MB-231 cells assessed as reduction in cell viability at 50 uM after 24 hrs by MTT assay relative to control. In kind it is functional.
Data set [12] has as its system MDA-MB-231. The experiment in a line: Antimetastatic activity against human MDA-MB-231 cells assessed as reduction in cell viability at 100 uM after 24 hrs by MTT assay relative to control. In kind it is functional.
The test system of data set [13] is MDA-MB-231. The experiment in a line: Antimetastatic activity against human MDA-MB-231 cells assessed as reduction in cell viability at 200 uM after 24 hrs by MTT assay relative to control. In kind it is functional.
Data set [14] deals with MCF7. Kind of data set: Antimetastatic activity against human MCF7 cells assessed as cell viability at 3.125 uM after 24 hrs by MTT assay relative to control. In kind it is functional. The settings on record: MCF7, 24 h, read-out: Activity.
Data set [15] has as its system MCF7. Kind of data set: Antimetastatic activity against human MCF7 cells assessed as cell viability at 100 uM after 24 hrs by MTT assay relative to control. In kind it is functional. The conditions noted are these: MCF7, 24 h, read-out: Activity.
The test system of data set [16] is MDA-MB-231. The experiment in a line: Antimetastatic activity against human MDA-MB-231 cells assessed as reduction in cell viability at <6.25 uM after 24 hrs by MTT assay. Format: functional, cell-based.
Data set [17] relates to MDA-MB-231. Kind of data set: Decrease in MMP9 mRNA expression in human MDA-MB-231 cells at 3.125 to 6.25 uM after 24 hrs by RT-PCR method. Format: functional, cell-based.
The subject of data set [18] is MDA-MB-231. Kind of data set: Downregulation of VEGF protein expression in human MDA-MB-231 cells at 3.125 uM after 24 hrs by Western blot analysis relative to control. Format: functional.
In data set [19] the test system is MDA-MB-231. The experiment in a line: Downregulation of VEGF protein expression in human MDA-MB-231 cells at 6.25 uM after 24 hrs by Western blot analysis relative to control. In kind it is functional.
Data set [20] has as its target RAC-alpha serine/threonine-protein kinase (Homo sapiens) (UniProt P31749). Kind of data set: Inhibition of Akt phosphorylation in human MDA-MB-231 cells at 3.125 uM after 24 hrs by Western blot analysis relative to control. Format: cell-based.
The target is the same in data set [21]. The experiment in a line: Inhibition of Akt phosphorylation in human MDA-MB-231 cells at 6.25 uM after 24 hrs by Western blot analysis relative to control. Format: cell-based.
The species entered for data set [22] is Homo sapiens. The experiment in a line: Inhibition of ERK phosphorylation in human MDA-MB-231 cells at 3.125 uM after 24 hrs by Western blot analysis relative to control. Format: cell-based.
For data set [23], the species on record is Homo sapiens. Kind of data set: Inhibition of ERK phosphorylation in human MDA-MB-231 cells at 6.25 uM after 24 hrs by Western blot analysis relative to control. In kind it is cell-based.
The species entered for data set [24] is Homo sapiens. The experiment in a line: Inhibition of ERK phosphorylation in human MDA-MB-231 cells at […] after 24 hrs by Western blot analysis relative to control. Format: cell-based.

Chain of RAC-alpha serine/threonine-protein kinase (Homo sapiens) (P31749 whole entry): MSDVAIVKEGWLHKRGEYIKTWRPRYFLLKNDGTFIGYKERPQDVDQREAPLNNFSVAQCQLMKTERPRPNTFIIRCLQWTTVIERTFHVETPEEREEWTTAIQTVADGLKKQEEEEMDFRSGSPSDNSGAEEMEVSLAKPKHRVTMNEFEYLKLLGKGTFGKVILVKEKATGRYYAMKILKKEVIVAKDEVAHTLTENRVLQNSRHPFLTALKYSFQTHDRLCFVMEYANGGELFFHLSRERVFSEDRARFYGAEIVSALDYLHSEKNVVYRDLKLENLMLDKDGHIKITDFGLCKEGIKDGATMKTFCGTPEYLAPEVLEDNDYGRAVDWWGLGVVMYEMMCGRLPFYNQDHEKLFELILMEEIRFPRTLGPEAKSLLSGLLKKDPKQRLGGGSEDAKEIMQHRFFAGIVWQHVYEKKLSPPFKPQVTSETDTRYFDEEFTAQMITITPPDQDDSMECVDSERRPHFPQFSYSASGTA

Turning to `COc1cc2oc(-c3ccc(O)cc3)cc(=O)c2c(O)c1OC` [CIRSIMARITIN], the Activity entry is “Dose-dependent effect” in the data set on HUVEC [1]; 62.04% in the data set on HUVEC [5]; “Non-Toxic” in the data set on HUVEC [6]; “Toxic” in the data set on HUVEC [7]; 83.19% in the data set on MDA-MB-231 [10]; 78.74% in the data set with MDA-MB-231 [11]. Moreover, the Activity in the data set on MDA-MB-231 [12] was 38.56%; in the data set on MDA-MB-231 [13], 52.73%. Also, the inhibition at 3.125 µM with HUVEC [2] was 18.1%. Besides, the inhibition at 6.25 µM in the data set with HUVEC [3] stood at 32.2%. The viability at 24 h, 3.12 µM in data set [4] is 89.9%. Further, the viability at 24 h, 100 µM in data set [8] amounted to 38%. In addition, the viability at 3.125 µM with MDA-MB-231 [9] was determined as 88.2%; in the data set with MCF7 [14], 81.8%. The viability at 100 µM in the data set with MCF7 [15] was found to be 53.4%. In addition, the result in the data set on MDA-MB-231 [16] was inactive. Also, the outcome with MDA-MB-231 [17] was Active. For the same compound, the “fold change (FC)” value amounted to 0.78 in the data set with MDA-MB-231 [18]; 0.78 in the data set on MDA-MB-231 [19]; 0.68 in data set [20]; 0.66 in data set [21]; 0.8 in the data set listed under Homo sapiens [22]; 0.57 in the data set filed under Homo sapiens [23]. In addition, in the data set listed under Homo sapiens [24], the inhibition was determined as 43%.
Take `COc1cccc2c1C(=O)c1c(O)c3c(c(O)c1C2=O)C[C@@](O)(C(=O)CO)C[C@@H]3O[C@H]1C[C@H](N)[C@H](O)[C@H](C)O1` [DOXORUBICIN]: the viability at 24 h, 3.12 µM in [4] stood at 14.2%. In addition, the viability at 24 h, 100 µM in [8] was 11.7%.
